For one test, the target named is ERK2 (Homo sapiens, UniProt P28482). Put plainly: ERK2 inhibition, spectrophotometric coupled-enzyme assay. The test is classed as biochemical. Particulars: activated ERK2 10 nM, 65 μM ATP, 30° C., pH 7.5; read-out: ERK2 Inhibitory Activity (Ki class).
A further test has as its target T1, Aurora2 (Homo sapiens, UniProt O14965).
T1 sequence (O14965 1-403): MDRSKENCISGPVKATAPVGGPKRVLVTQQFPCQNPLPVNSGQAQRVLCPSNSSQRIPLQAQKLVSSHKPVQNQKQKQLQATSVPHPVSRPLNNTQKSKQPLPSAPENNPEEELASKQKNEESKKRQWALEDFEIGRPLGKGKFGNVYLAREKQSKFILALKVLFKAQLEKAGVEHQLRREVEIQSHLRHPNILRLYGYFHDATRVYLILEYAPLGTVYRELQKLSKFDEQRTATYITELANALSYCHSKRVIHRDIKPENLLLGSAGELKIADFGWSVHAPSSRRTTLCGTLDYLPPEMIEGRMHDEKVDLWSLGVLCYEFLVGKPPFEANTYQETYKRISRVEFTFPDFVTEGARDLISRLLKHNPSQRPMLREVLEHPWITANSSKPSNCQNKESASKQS
Put plainly: Aurora inhibition, standard coupled enzyme assay. Particulars: 40 μM ATP, 30° C.; read-out: Aurora2 Inhibitory Activity (IC50 class). The format is biochemical. As to the method: Compounds were screened in the following manner for their ability to inhibit Aurora using a standard coupled enzyme assay. To an assay stock buffer solution containing 0.1M HEPES 7.5, 10 mM MgCl2, 25 mM NaCl, 2.5 mM phosphoenolpyruvate, 300 μM NADH, 30 μg/mL pyruvate kinase, 10 μg/mL lactate dehydrogenase, 40 μM ATP, and 800 μM peptide (LRRASLG, American Peptide, Sunnyvale, Calif.) was added a 30 μM solution of the compound in DMSO and the resulting mixture incubated at 30° C. for 10 min. The reaction was initiated by the addition of 10 μL of 70 nM Aurora and 1 mM DTT. The rates of reaction were obtained by monitoring absorbance at 340 nm over a 5 minute read time at 30° C. using a BioRad Ultramark plate reader (Hercules, Calif.). The IC50 was determined from the rate data as a function of inhibitor concentration.
The compound numbers correspond to the compound numbers in Table 1.

Another test relates to AKT. Kind of test: AKT inhibition, standard coupled enzyme assay. The format is biochemical. On the procedure:
Compounds were screened for their ability to inhibit AKT using a standard coupled enzyme assay (Fox et al., Protein Sci., (1998) 7, 2249). Assays were carried out in a mixture of 100 mM HEPES 7.5, 10 mM MgCl2, 25 mM NaCl , 1 mM DTT and 1.5% DMSO. Final substrate concentrations in the assay were 170 μM ATP (Sigma Chemicals) and 200 μM peptide (RPRAATF, American Peptide, Sunnyvale, Calif.). Assays were carried out at 30° C. and 45 nM AKT. Final concentrations of the components of the coupled enzyme system were 2.5 mM phosphoenolpyruvate, 300 μM NADH, 30 μg/ML pyruvate kinase and 10 μg/ml lactate dehydrogenase.
An assay stock buffer solution was prepared containing all of the reagents listed above, with the exception of AKT, DTT, and the test compound of interest. 56 μl of the stock solution was placed in a 384 well plate followed by addition of 1 μl of 2 mM DMSO stock containing the test compound (final compound concentration 30 μM). The plate was preincubated for about 10 minutes at 30° C. and the reaction initiated by addition of 10 μl of enzyme (final concentration 45 nM) and 1 mM DTT. Rates of reaction were obtained using a BioRad Ultramark plate reader (Hercules, Calif.) over a 5 minute read time at 30° C.

Test [1] concerns Colon cancer cells (HT-29 cell line). Put plainly: ERK inhibition cell proliferation assay (3H-thymidine uptake). The test is classed as cell-based. Particulars: Homo sapiens, 3 days. On the procedure: Compounds were assayed for the inhibition of ERK2 by a cell proliferation assay. In this assay, a complete media was prepared by adding 10% fetal bovine serum and penicillin/streptomycin solution to RPMI 1640 medium (JRH Biosciences). Colon cancer cells (HT-29 cell line) were added to each of 84 wells of a 96 well plate at a seeding density of 10,000 cells/well/150 μL. The cells were allowed to attach to the plate by incubating at 37° C. for 2 hours. A solution of test compound was prepared in complete media by serial dilution to obtain the following concentrations: 20 μM, 6.7 μM, 2.2 μM, 0.74 μM, 0.25 μM, and 0.08 μM. The test compound solution (50 μL) was added to each of 72 cell-containing wells. To the 12 remaining cell-containing wells, only complete media […] was added to form a control group in order to measure maximal proliferation. To the remaining 12 empty wells, complete media was added to form a vehicle control group in order to measure background. The plates were incubated at 37° C. for 3 days. A stock solution of ^3H-thymidine (1 mCi/mL, New England Nuclear, Boston, Mass.) was diluted to 20 μCi/mL in RPMI medium then 20 μL of this solution was added to each well. The plates were further incubated at 37° C. for 8 hours then harvested and analyzed for ^3H-thymidine uptake using a liquid scintillation counter.

A further test has as its target KDR (Homo sapiens, UniProt P35968). Put plainly: KDR inhibition, standard coupled enzyme assay. The test is classed as biochemical. The settings on record: read-out: percent inhibition of KDR. On the procedure:
Compounds were screened for their ability to inhibit KDR using a standard coupled enzyme assay (Fox et al., Protein Sci., (1998) 7, 2249). Assays were carried out in a mixture of 200 mM HEPES 7.5, 10 mM MgCl2, 25 mM NaCl , 1 mM DTT and 1.5% DMSO. Final substrate concentrations in the assay were 300 μM ATP (Sigma Chemicals) and 10 μM poly E4Y (Sigma). Assays were carried out at 37° C. and 30 nM KDR. Final concentrations of the components of the coupled enzyme system were 2.5 mM phosphoenolpyruvate, 200 μM NADH, 30 μg/ML pyruvate kinase and 10 μg/ml lactate dehydrogenase.
An assay stock buffer solution was prepared containing all of the reagents listed above, with the exception of ATP and the test compound of interest. 177 μl of the stock solution was placed in a 96 well plate followed by addition of 3 μl of 2 mM DMSO stock containing the test compound (final compound concentration 30 μM). The plate was preincubated for about 10 minutes at 37° C. and the reaction initiated by addition of 20 μl of ATP (final concentration 300 μM). Rates of reaction were obtained using a Molecular Devices plate reader (Sunnyvale, Calif.) over a 5 minute read time at 37° C.

A value given as a limit tells only on which side of the number the result lay.

Sequence of ERK2 (P28482 whole entry): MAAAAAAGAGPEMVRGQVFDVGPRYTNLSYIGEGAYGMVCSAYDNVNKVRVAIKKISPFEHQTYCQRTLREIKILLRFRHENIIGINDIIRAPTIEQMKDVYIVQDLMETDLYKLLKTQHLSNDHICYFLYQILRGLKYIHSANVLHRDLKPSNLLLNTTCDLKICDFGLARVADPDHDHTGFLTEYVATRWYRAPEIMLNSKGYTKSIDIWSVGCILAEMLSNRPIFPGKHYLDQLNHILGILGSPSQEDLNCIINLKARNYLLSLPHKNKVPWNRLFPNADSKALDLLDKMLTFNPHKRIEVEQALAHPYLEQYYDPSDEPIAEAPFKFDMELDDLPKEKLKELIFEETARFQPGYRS
Sequence of KDR (P35968 20-1356, species assumed): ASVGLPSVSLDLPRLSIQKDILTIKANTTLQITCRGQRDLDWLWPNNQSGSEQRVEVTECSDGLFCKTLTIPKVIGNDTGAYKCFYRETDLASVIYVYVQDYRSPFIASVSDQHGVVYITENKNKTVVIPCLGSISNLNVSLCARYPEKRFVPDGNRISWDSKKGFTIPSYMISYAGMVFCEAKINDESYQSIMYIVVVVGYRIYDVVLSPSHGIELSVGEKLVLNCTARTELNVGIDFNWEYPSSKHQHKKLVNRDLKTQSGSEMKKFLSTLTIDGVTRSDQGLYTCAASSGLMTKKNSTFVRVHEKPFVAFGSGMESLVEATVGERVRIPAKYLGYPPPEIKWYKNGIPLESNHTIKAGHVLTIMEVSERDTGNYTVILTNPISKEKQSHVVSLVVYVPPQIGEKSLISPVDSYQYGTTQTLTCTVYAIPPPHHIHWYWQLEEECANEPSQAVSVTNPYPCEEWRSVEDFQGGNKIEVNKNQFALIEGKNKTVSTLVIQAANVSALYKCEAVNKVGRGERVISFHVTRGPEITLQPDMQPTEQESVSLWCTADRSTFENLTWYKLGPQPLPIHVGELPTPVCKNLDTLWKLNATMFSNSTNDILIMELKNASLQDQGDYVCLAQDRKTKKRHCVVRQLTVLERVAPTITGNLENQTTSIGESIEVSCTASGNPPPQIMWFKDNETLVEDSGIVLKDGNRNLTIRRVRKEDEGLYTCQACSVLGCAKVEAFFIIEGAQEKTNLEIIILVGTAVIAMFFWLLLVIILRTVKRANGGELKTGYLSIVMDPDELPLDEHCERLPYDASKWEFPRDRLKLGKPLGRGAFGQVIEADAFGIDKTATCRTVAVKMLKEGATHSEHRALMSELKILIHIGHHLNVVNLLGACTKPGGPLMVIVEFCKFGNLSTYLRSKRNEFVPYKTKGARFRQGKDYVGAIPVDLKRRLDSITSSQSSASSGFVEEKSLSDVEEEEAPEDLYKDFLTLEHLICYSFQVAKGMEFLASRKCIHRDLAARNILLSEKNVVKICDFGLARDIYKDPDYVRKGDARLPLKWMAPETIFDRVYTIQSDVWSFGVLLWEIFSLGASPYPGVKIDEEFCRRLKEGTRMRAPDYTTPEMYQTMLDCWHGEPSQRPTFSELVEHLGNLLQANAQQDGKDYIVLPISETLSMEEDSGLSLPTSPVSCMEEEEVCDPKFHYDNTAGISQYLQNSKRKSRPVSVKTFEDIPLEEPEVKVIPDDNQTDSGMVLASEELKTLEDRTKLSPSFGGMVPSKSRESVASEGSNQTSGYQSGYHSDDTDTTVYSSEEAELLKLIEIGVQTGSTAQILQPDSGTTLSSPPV

As usually defined, the Ki is the equilibrium dissociation constant of an inhibitor or competing ligand from its target. As a reminder, the IC50 is the point on the concentration scale where inhibition reaches its midpoint. On to `O=C(NOCc1ccccc1)c1cc(-c2[nH]ncc2-c2cccc(F)c2)c[nH]1` [II-89], for which, at ERK2, the Ki is less than 1 µM. Also, the IC50 on Aurora2 is less than 5 µM. Also, the “inhibit AKT” value in the test with AKT is “inhibit AKT”.

As usually defined, the inhibition is the drop in the measured response relative to a control, in per cent. On to `O=C(NCc1ccncc1)c1cc(-c2n[nH]cc2-c2cc(Cl)cc(Cl)c2)c[nH]1` [II-48], for which, at ERK2, the Ki was less than 1 µM. Also, the IC50 in test [1] was less than 10 µM; at Aurora2 it was less than 5 µM. At KDR, the inhibition at 2 µM was greater than 40%.

In the case of `O=C(NCc1ccncc1)c1cc(-c2[nH]ncc2-c2cccc(Cl)c2F)c[nH]1` [II-115], on ERK2, the Ki is less than 1 µM. The IC50 at Aurora2 is less than 5 µM.

As to `O=C(NOCc1ccccc1)c1cc(-c2[nH]ncc2-c2ccc(Cl)cc2)c[nH]1` [II-99], the Ki at ERK2 is less than 1 µM. Also, on Aurora2, the IC50 is less than 5 µM.

With `O=C(c1cc(-c2n[nH]cc2-c2cc(Cl)cc(Cl)c2)c[nH]1)N1CCOCC1` [II-112], the Ki on ERK2 is less than 1 µM. The IC50 on Aurora2 is less than 5 µM.

In the case of `O=C(NCc1cccnc1)c1cc(-c2[nH]ncc2-c2cc(Cl)cc(Cl)c2)c[nH]1` [II-76], the Ki on ERK2 is less than 1 µM. Further, the IC50 at Aurora2 is less than 5 µM.

Turning to `O=C(NOCc1ccccc1)c1cc(-c2[nH]ncc2-c2ccc(F)c(F)c2)c[nH]1` [II-85], the Ki on ERK2 was less than 1 µM. Besides, the IC50 at Aurora2 was in the range of 5 to 10 µM.

Take `NS(=O)(=O)c1ccc(CNC(=O)c2cc(-c3[nH]ncc3-c3cccc(Br)c3)c[nH]2)cc1` [II-94]: on ERK2, the Ki is less than 1 µM. Besides, in the test with AKT, the “inhibit AKT” value is “inhibit AKT”.

As to `O=C(NC(CO)c1ccccc1)c1cc(-c2[nH]ncc2-c2cccc(Br)c2)c[nH]1` (stereo not drawn) [II-45], on ERK2, the inhibition constant Ki is less than 1 µM. Besides, the IC50 in test [1] is less than 10 µM.

As for `O=C(NOCc1ccccc1)c1cc(-c2[nH]ncc2-c2ccc(F)c(Cl)c2)c[nH]1` [II-77], the Ki on ERK2 is less than 1 µM. Moreover, at Aurora2, the IC50 is less than 5 µM.

`O=C(NCc1ccc2c(c1)CCO2)c1cc(-c2[nH]ncc2-c2cccc(Br)c2)c[nH]1` [II-43]: the Ki on ERK2 was less than 1 µM. The same compound displayed an IC50 in test [1] of less than 10 µM. In addition, the inhibition at 2 µM on KDR was greater than 40%.

Consider `O=C(NOCc1ccccc1)c1cc(-c2[nH]ncc2-c2cc(Cl)cc(Cl)c2)c[nH]1` [II-51], for which, at ERK2, the Ki is less than 1 µM. Also, the IC50 on Aurora2 lay within 5 to 10 µM.

`CCN(C)C(=O)c1cc(-c2[nH]ncc2-c2cc(Cl)cc(Cl)c2)c[nH]1` [II-66]: at ERK2, the Ki is less than 1 µM. For the same compound, the IC50 at Aurora2 lay within 5 to 10 µM.

`O=C(NCc1ccncc1)c1cc(-c2[nH]ncc2-c2ccc(F)c(F)c2)c[nH]1` [II-88]: the inhibition constant Ki at ERK2 is less than 1 µM. Also, at Aurora2, the IC50 lay within 5 to 10 µM.

With `CCN(C)C(=O)c1cc(-c2[nH]ncc2-c2ccc(F)c(Cl)c2)c[nH]1` [II-108], the Ki on ERK2 is less than 1 µM. The IC50 at Aurora2 lay in the range of 5 to 10 µM.

For the compound `CCN(C)C(=O)c1cc(-c2[nH]ncc2-c2ccc(Cl)c(Cl)c2)c[nH]1` [II-64], the Ki at ERK2 is less than 1 µM. Besides, on Aurora2, the IC50 was less than 5 µM.

On to `O=C(NOCc1ccccc1)c1cc(-c2[nH]ncc2-c2cc(F)ccc2F)c[nH]1` [II-113], for which, on ERK2, the Ki is less than 1 µM. Also, at Aurora2, the IC50 was less than 5 µM.

`O=C(NOCc1ccccc1)c1cc(-c2[nH]ncc2-c2cccc(Cl)c2F)c[nH]1` [II-82]: the Ki at ERK2 is less than 1 µM. On Aurora2, the IC50 is less than 5 µM.

In the case of `O=C(NC(CO)c1ccccc1)c1cc(-c2[nH]ncc2-c2cccc(Br)c2)c[nH]1` (stereo not drawn) [II-72], the Ki at ERK2 was less than 1 µM. In addition, the IC50 at Aurora2 lay in the range of 5 to 10 µM.

The values are drawn from US6593357B1, “Pyrazole compositions useful as inhibitors of ERK” (Vertex Pharmaceuticals Incorporated, priority 2000, dated 2003).
